Reference: ChEMBL document CHEMBL1201862, “PubChem BioAssay data set” (2004)
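Protocol summary: plate cells (96-well), add compound at 5 concentrations, incubate 48 h, interpolate endpoints linearly. Abbreviation: GI50, concentration required for 50% inhibition of growth.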 Activity calls are given as the source filed them. Rule as the data show it: active = GI50 up to about 1.1 µM and inactive = higher.

How the values were obtained:
Assay in all cases: growth of human tumour cells (NCI), 48 h
K562 = system: K562
LOX IMVI = system: LOX IMVI
Hs-578T = system: Hs-578T
NCI-H460 = system: NCI-H460
COLO 205 = system: COLO 205
SF-295 = system: SF-295
MCF7 = system: MCF7
NCI-H226 = system: NCI-H226
786-0 = system: 786-0
M14 = system: M14
HT-29 = system: HT-29
SN12C = system: SN12C
RXF 393 = system: RXF 393
EKVX = system: EKVX
OVCAR-8 = system: OVCAR-8
SNB-75 = system: SNB-75
SR = system: SR
IGROV-1 = system: IGROV-1
A549 = system: A549
U-251 = system: U-251
HOP-92 = system: HOP-92
MOLT-4 = system: MOLT-4
OVCAR-5 = system: OVCAR-5
CAKI-1 = system: CAKI-1
UACC-257 = system: UACC-257
HCT-15 = system: HCT-15
DU-145 = system: DU-145
UACC-62 = system: UACC-62
A498 = system: A498
NCI/ADR-RES = system: NCI/ADR-RES
SF-268 = system: SF-268
UO-31 = system: UO-31
HL-60 = system: HL-60
HCT-116 = system: HCT-116
Malme-3M = system: Malme-3M
PC-3 = system: PC-3
MDA-N = system: MDA-N
SNB-19 = system: SNB-19
HOP-62 = system: HOP-62
NCI-H522 = system: NCI-H522
CCRF-CEM = system: CCRF-CEM
T47D = system: T47D
KM12 = system: KM12
NCI-H23 = system: NCI-H23
SK-OV-3 = system: SK-OV-3
RPMI-8226 = system: RPMI-8226
TK-10 = system: TK-10
MDA-MB-231 = system: MDA-MB-231
SW-620 = system: SW-620
SK-MEL-28 = system: SK-MEL-28
OVCAR-3 = system: OVCAR-3
SK-MEL-5 = system: SK-MEL-5
ACHN = system: ACHN
MDA-MB-435 = system: MDA-MB-435
HCC 2998 = system: HCC 2998
OVCAR-4 = system: OVCAR-4
BT-549 = system: BT-549
SK-MEL-2 = system: SK-MEL-2
SF-539 = system: SF-539

For O=C1[C@@H]2[C@@H](CN3CN(c4ccccc4)N=C(c4ccccc4)[C@@]23c2ccccc2)C(=O)N1c1ccccc1, the GI50 (K562) was 2.69 µM (inactive), the GI50 (LOX IMVI) was 1.68 µM (inactive) and the GI50 (Hs-578T) was 20.3 µM (inactive). The GI50 (NCI-H460) was 19.8 µM (inactive), the GI50 (COLO 205) was 1.91 µM (inactive) and the GI50 (SF-295) was 15.1 µM (inactive). The GI50 (MCF7) was 1.94 µM (inactive), the GI50 (NCI-H226) was 0.977 µM (active) and the GI50 (786-0) was 1.88 µM (inactive). For the same compound, the GI50 (M14) was 2.94 µM (inactive), the GI50 (HT-29) was 2.36 µM (inactive) and the GI50 (SN12C) was 6.58 µM (inactive). For the same compound, the GI50 (RXF 393) was 2.95 µM (inactive), the GI50 (EKVX) was 4.89 µM (inactive) and the GI50 (OVCAR-8) was 5.85 µM (inactive). For the same compound, the GI50 (SNB-75) was 16 µM (inactive), the GI50 (SR) was 2.61 µM (inactive) and the GI50 (IGROV-1) was 13.8 µM (inactive). The GI50 (A549) was 6.11 µM (inactive), the GI50 (U-251) was 8.99 µM (inactive) and the GI50 (HOP-92) was 1.79 µM (inactive). The GI50 (MOLT-4) was 2.84 µM (inactive), the GI50 (OVCAR-5) was 4.7 µM (inactive) and the GI50 (CAKI-1) was 0.863 µM (active). The GI50 (UACC-257) was 12 µM (inactive), the GI50 (HCT-15) was 2.3 µM and the GI50 (DU-145) was 7.14 µM (inactive). For the same compound, the GI50 (UACC-62) was 5.98 µM (inactive), the GI50 (A498) was 18.4 µM (inactive) and the GI50 (NCI/ADR-RES) was 17.5 µM (inactive). The GI50 (SF-268) was 18.8 µM (inactive), the GI50 (UO-31) was 1.73 µM (inactive) and the GI50 (HL-60) was 2.25 µM (inactive). For the same compound, the GI50 (HCT-116) was 5.07 µM (inactive), the GI50 (Malme-3M) was 1.82 µM (inactive) and the GI50 (PC-3) was 6.31 µM (inactive). For the same compound, the GI50 (MDA-N) was 5.19 µM (inactive), the GI50 (SNB-19) was 16.7 µM (inactive) and the GI50 (HOP-62) was 14 µM (inactive). For the same compound, the GI50 (NCI-H522) was 0.547 µM (active), the GI50 (CCRF-CEM) was 1.45 µM (inactive) and the GI50 (T47D) was 2.58 µM (inactive). The GI50 (KM12) was 14.3 µM (inactive), the GI50 (NCI-H23) was 8.69 µM (inactive) and the GI50 (SK-OV-3) was 14 µM (inactive). The GI50 (RPMI-8226) was 1.61 µM (inactive), the GI50 (TK-10) was 1.48 µM (inactive) and the GI50 (MDA-MB-231) was 4.54 µM (inactive). The GI50 (SW-620) was 2 µM (inactive), the GI50 (SK-MEL-28) was 11.3 µM (inactive) and the GI50 (OVCAR-3) was 7.73 µM (inactive). The GI50 (SK-MEL-5) was 16.9 µM (inactive), the GI50 (ACHN) was 1.83 µM (inactive) and the GI50 (MDA-MB-435) was 5.68 µM (inactive). For the same compound, the GI50 (HCC 2998) was 25.2 µM (inactive), the GI50 (OVCAR-4) was 2.61 µM (inactive) and the GI50 (BT-549) was 3.61 µM (inactive). The GI50 (SK-MEL-2) was 14.9 µM (inactive).

For O=c1c2ccccc2n2n1Cc1ccccc1C2, the GI50 (K562) was > 100 µM (inactive), the GI50 (LOX IMVI) was > 100 µM (inactive) and the GI50 (Hs-578T) was 57.9 µM (inactive). For the same compound, the GI50 (NCI-H460) was > 100 µM (inactive), the GI50 (COLO 205) was > 100 µM (inactive) and the GI50 (SF-295) was > 100 µM (inactive). The GI50 (MCF7) was > 100 µM (inactive), the GI50 (NCI-H226) was > 100 µM (inactive) and the GI50 (786-0) was > 100 µM (inactive). For the same compound, the GI50 (HT-29) was > 100 µM (inactive), the GI50 (SN12C) was > 100 µM (inactive) and the GI50 (RXF 393) was > 100 µM (inactive). For the same compound, the GI50 (EKVX) was 35.6 µM (inactive), the GI50 (OVCAR-8) was > 100 µM (inactive) and the GI50 (SNB-75) was 58.3 µM (inactive). For the same compound, the GI50 (SR) was > 100 µM (inactive), the GI50 (IGROV-1) was > 100 µM (inactive) and the GI50 (A549) was > 100 µM (inactive). The GI50 (U-251) was > 100 µM (inactive), the GI50 (HOP-92) was > 100 µM (inactive) and the GI50 (MOLT-4) was > 100 µM (inactive). The GI50 (CAKI-1) was > 100 µM (inactive), the GI50 (UACC-257) was > 100 µM (inactive) and the GI50 (HCT-15) was greater than 100 µM. For the same compound, the GI50 (DU-145) was > 100 µM (inactive), the GI50 (UACC-62) was > 100 µM (inactive) and the GI50 (A498) was > 100 µM (inactive). The GI50 (NCI/ADR-RES) was > 100 µM (inactive), the GI50 (SF-268) was > 100 µM (inactive) and the GI50 (UO-31) was 86.3 µM (inactive). For the same compound, the GI50 (HL-60) was > 100 µM (inactive), the GI50 (HCT-116) was > 100 µM (inactive) and the GI50 (Malme-3M) was > 100 µM (inactive). The GI50 (PC-3) was > 100 µM (inactive), the GI50 (MDA-N) was > 100 µM (inactive) and the GI50 (SNB-19) was > 100 µM (inactive). The GI50 (HOP-62) was > 100 µM (inactive), the GI50 (NCI-H522) was > 100 µM (inactive) and the GI50 (CCRF-CEM) was > 100 µM (inactive). The GI50 (T47D) was > 100 µM (inactive), the GI50 (KM12) was > 100 µM (inactive) and the GI50 (NCI-H23) was > 100 µM (inactive). The GI50 (SK-OV-3) was > 100 µM (inactive), the GI50 (RPMI-8226) was > 100 µM (inactive) and the GI50 (TK-10) was > 100 µM (inactive). The GI50 (SF-539) was > 100 µM (inactive), the GI50 (MDA-MB-231) was > 100 µM (inactive) and the GI50 (SW-620) was > 100 µM (inactive). The GI50 (SK-MEL-28) was > 100 µM (inactive), the GI50 (OVCAR-3) was > 100 µM (inactive) and the GI50 (SK-MEL-5) was > 100 µM (inactive). The GI50 (ACHN) was > 100 µM (inactive), the GI50 (MDA-MB-435) was > 100 µM (inactive) and the GI50 (HCC 2998) was > 100 µM (inactive). The GI50 (OVCAR-4) was > 100 µM (inactive) and the GI50 (BT-549) was > 100 µM (inactive).
